29 molecules from patent publication US11046699B2, “Pyrazolo-pyrimidin-amino-cycloalkyl compounds and their therapeutic uses” (RAPT THERAPEUTICS, INC., priority 2018, dated 2021) can be followed below.

Structures can show the parent of a compound that is named as a salt. Some results are limits rather than exact numbers.

One assay deals with GCN2 (Homo sapiens, UniProt Q9P2K8). Put plainly: GCN2 enzymatic endpoint assay: phosphorylation of GFP-eIF2α measured by TR-FRET (Lanthascreen). The format is biochemical. As to conditions: GCN2 biochemical IC50; 4 nM GCN2, 2 μM ATP, 80 nM GFP-eIF2α, 90 min RT; read-out: GCN2 activity. Put shortly: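 Kinase activity is measured as phosphorylation of GFP-labelled eIF2α (80 nM) with ATP at 2 μM. Incubation runs 90 minutes at room temperature before EDTA quench and terbium-antibody detection.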
Sequence of GCN2 (Q9P2K8 whole entry): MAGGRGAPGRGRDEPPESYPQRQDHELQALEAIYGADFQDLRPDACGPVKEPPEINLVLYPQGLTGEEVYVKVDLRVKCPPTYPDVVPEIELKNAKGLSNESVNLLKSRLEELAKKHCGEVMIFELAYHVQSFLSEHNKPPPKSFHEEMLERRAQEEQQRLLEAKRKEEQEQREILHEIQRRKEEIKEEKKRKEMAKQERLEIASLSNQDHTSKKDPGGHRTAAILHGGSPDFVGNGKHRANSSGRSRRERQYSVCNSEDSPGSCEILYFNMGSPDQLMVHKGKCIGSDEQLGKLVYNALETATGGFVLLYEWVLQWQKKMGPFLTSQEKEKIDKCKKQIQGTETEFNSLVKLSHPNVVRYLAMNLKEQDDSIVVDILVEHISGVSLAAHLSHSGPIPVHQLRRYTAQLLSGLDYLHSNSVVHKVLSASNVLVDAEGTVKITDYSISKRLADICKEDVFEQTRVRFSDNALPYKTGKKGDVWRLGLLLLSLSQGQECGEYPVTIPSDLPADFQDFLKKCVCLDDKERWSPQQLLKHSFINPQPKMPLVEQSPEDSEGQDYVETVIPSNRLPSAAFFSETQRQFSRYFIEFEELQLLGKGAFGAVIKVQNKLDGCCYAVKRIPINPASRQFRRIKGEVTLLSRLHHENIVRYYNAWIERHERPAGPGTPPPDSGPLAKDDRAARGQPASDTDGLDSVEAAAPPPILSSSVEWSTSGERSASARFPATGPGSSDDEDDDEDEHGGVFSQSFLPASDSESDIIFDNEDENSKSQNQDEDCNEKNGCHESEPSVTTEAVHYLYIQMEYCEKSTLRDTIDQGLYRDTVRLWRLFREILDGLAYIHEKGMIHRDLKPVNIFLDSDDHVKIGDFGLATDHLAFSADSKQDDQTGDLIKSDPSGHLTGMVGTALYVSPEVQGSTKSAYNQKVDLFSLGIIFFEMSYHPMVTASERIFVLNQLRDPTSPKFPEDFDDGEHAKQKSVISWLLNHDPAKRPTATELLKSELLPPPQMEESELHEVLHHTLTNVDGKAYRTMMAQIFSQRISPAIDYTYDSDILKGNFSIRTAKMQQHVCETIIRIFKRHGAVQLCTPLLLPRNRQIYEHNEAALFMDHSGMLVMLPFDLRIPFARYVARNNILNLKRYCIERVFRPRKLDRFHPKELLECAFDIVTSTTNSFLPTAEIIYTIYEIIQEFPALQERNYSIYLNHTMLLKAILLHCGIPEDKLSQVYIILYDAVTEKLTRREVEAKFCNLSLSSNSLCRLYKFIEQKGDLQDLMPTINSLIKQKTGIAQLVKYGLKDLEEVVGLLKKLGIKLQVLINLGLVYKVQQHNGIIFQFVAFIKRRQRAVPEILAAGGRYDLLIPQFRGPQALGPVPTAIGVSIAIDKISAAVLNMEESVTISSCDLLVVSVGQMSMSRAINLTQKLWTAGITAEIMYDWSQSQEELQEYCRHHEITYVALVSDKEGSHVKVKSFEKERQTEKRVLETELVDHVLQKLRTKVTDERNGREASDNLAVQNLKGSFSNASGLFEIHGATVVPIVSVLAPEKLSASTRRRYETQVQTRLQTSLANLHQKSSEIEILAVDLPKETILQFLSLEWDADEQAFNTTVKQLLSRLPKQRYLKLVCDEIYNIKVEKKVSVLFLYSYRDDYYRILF
For the molecule `O=C1NCC[C@]12CC[C@@H](Nc1ncc3c(Br)nn(-c4cc(F)c5ncccc5c4)c3n1)C2` [Example 48, (5S,7R)-7-((3-bromo-1-(8-fluoroquinolin-6-yl)-1H-pyrazolo[3,4-d]pyrimidin-6-yl)amino)-2-azaspiro[4.4]nonan-1-one hydrochloride], the IC50 was in the range of 25 to 200 nM.
The same measure, in the same setting: with `COCCNC(=O)[C@@H]1CC[C@@H](Nc2ncc3c(Br)nn(-c4ccc(-c5cccnc5)cc4)c3n2)C1` [Example 24, (1R,3R)-3-((3-bromo-1-(4-(pyridin-3-yl)phenyl)-1H-pyrazolo[3,4-d]pyrimidin-6-yl)amino)-N-(2-methoxyethyl)cyclopentane-1-carboxamide] the figure was 200 to 500 nM; with `CNC(=O)[C@]1(C)CC[C@@H](Nc2ncc3c(Br)nn(-c4cc(Cl)cc(CN)c4)c3n2)C1` [Example 52, (1R,3R)-3-((1-(3-(aminomethyl)-5-chlorophenyl)-3-bromo-1H-pyrazolo[3,4-d]pyrimidin-6-yl)amino)-N,1-dimethylcyclopentane-1-carboxamide; 2,2,2-trifluoroacetic acid], 25 to 200 nM.

The same assay, now with this note: tested as described in Example 77; compound and/or hydrochloride, dihydrochloride or trifluoroacetic acid salt; read-out: IC 50 Activity.
With `O=C([C@@H]1CC[C@@H](Nc2ncc3c(Br)nn(-c4ccc5ncccc5c4)c3n2)C1)N1CCC(O)(C(F)(F)F)CC1` [((1R,3R)-3-((3-bromo-1-(quinolin-6-yl)-1H-pyrazolo[3,4-d]pyrimidin-6-yl)amino)cyclo-pentyl)(4-hydroxy-4-(trifluoromethyl)piperidin-1-yl)methanone], the IC50 lay within 200 to 500 nM.
Turning to `CNC(=O)C1(C)CC[C@@H](Nc2ncc3c(Br)nn(-c4cc(C#N)c5nccc(C)c5c4)c3n2)C1` (stereo partly drawn) [(3R)-3-[[3-bromo-1-(8-cyano-4-methyl-6-quinolyl)pyrazolo[3,4-d]pyrimidin-6-yl]amino]-N,1-dimethyl-cyclopentane-carboxamide], the IC50 was under 25 nM.
Still for that read-out and setting: with `CNC(=O)[C@]1(C)CC[C@@H](Nc2ncc3c(Br)nn(-c4ccc(-c5nnc(C)s5)nc4)c3n2)C1` the figure was 25 to 200 nM.
Regarding `CNC(=O)[C@]1(C)CC[C@@H](Nc2ncc3c(Br)nn(-c4ccc(-c5ncco5)c(NC(=O)CC#N)c4)c3n2)C1` [(1R,3R)-3-[[3-bromo-1-[3-[(2-cyanoacetyl)amino]-4-oxazol-2-yl-phenyl]pyrazolo [3,4-d]pyrimidin-6-yl]amino]-N,1-dimethyl-cyclopentanecarboxamide], the IC50 lay within 25 to 200 nM.
`O=C(N[C@@H]1CCNC[C@@H]1F)[C@@H]1CC[C@@H](Nc2ncc3c(Br)nn(-c4cc(F)c5ncccc5c4)c3n2)C1` [(1R,3R)-3-((3-bromo-1-(8-fluoroquinolin-6-yl)-1H-pyrazolo[3,4-d]pyrimidin-6-yl)amino)-N-((3S,4R)-3-fluoropiperidin-4-yl)cyclo-pentane-1-carboxamide]: the IC50 was under 25 nM.
Still for that read-out and setting: with `CNC(=O)[C@@]1(CO)CC[C@@H](Nc2ncc3c(Br)nn(-c4ccc(-c5nnc(C)s5)cc4)c3n2)C1` [(1S,3R)-3-[[3-bromo-1-[4-(5-methyl-1,3,4-thiadiazol-2-yl)phenyl]pyrazolo [3,4-d]pyrimidin-6-yl]amino]-1-(hydroxymethyl)-N-methyl-cyclo-pentanecarboxamide] the figure was 25 to 200 nM; with `C[C@H](N)c1cc(Cl)cc(-n2nc(Br)c3cnc(N[C@@H]4CC[C@@](C)(C(=O)N5CCP(C)(=O)CC5)C4)nc32)c1`, 25 to 200 nM.
In the case of `O=C(N[C@@H]1CCOC1)[C@@H]1CC[C@@H](Nc2ncc3c(Br)nn(-c4ccc5ncccc5c4)c3n2)C1` [(1R,3R)-3-((3-bromo-1-(quinolin-6-yl)-1H-pyrazolo[3,4-d]pyrimidin-6-yl)amino)-N-((R)-tetrahydrofuran-3-yl)cyclopentane-1-carboxamide], the IC50 lay within 25 to 200 nM.
As for `CNC(=O)[C@]1(C)CC[C@@H](Nc2ncc3c(Br)nn(-c4ccc(-c5nnc(C)s5)c(CCO)c4)c3n2)C1` [(1R,3R)-3-[[3-bromo-1-[3-(2-hydroxyethyl)-4-(5-methyl-1,3,4-thiadiazol-2-yl)phenyl]pyrazolo[3,4-d]pyrimidin-6-yl]amino]-N,1-dimethyl-cyclopentanecarboxamide], the IC50 was in the range of 25 to 200 nM.
As for `CNC(=O)[C@]1(C)CC[C@@H](Nc2ncc3c(Br)nn(-c4cc(CNCC(F)F)c5ncccc5c4)c3n2)C1` [(1R,3R)-3-[[3-bromo-1-[8-[(2,2-difluoroethylamino)methyl]-6-quinolyl]pyrazolo[3,4-d]pyrimidin-6-yl]amino]-N,1-dimethyl-cyclopentanecarboxamide], the IC50 lay within 25 to 200 nM.
For `O[C@@H]1CCC[C@@H]1Nc1ncc2c(Br)nn(-c3cc(F)c4ncccc4c3)c2n1` [(1R,2S)-2-[[3-bromo-1-(8-fluoro-6-quinolyl)pyrazolo[3,4-d]pyrimidin-6-yl]amino]cyclopentanol], the IC50 lay within 25 to 200 nM.
In the case of `CNC(=O)[C@]1(C)CC[C@@H](Nc2ncc3c(Br)nn(-c4ccc5c(c4)SCC(=O)N5C)c3n2)C1` [(1R,3R)-3-[[3-bromo-1-(4-methyl-3-oxo-1,4-benzothiazin-7-yl)pyrazolo[3,4-d]pyrimidin-6-yl]amino]-N,1-dimethyl-cyclopentanecarboxamide], the IC50 lay in the range of 25 to 200 nM.
Regarding `CNC(=O)[C@]1(C(C)C)CC[C@@H](Nc2ncc3c(Br)nn(-c4ccc(-c5nnc(C)s5)c(CCC#N)c4)c3n2)C1` [(1R,3R)-3-[[3-bromo-1-[3-(2-cyanoethyl)-4-(5-methyl-1,3,4-thiadiazol-2-yl)phenyl]pyrazolo[3,4-d]pyrimidin-6-yl]amino]-1-isopropyl-N-methyl-cyclopentane-carboxamide], the IC50 was 25 to 200 nM.
Turning to `O=C([C@@H]1CC[C@@H](Nc2ncc3c(Br)nn(-c4ccc5ncccc5c4)c3n2)C1)N1CC2CCC(C1)O2` [(8-oxa-3-azabicyclo[3.2.1]octan-3-yl)((1R,3R)-3-((3-bromo-1-(quinolin-6-yl)-1H-pyrazolo [3,4-d]pyrimidin-6-yl)amino)cyclopentyl) methanone], the IC50 lay within 25 to 200 nM.
With `CC1(NC(=O)[C@@H]2CC[C@@H](Nc3ncc4c(Br)nn(-c5ccc6ncccc6c5)c4n3)C2)CCOC1` (stereo partly drawn) [(1R,3R)-3-((3-bromo-1-(quinolin-6-yl)-1H-pyrazolo[3,4-d]pyrimidin-6-yl)amino)-N-(3-methyltetrahydrofuran-3-yl)cyclopentane-1-carboxamide], the IC50 was 25 to 200 nM.
`Cc1nnc(-c2ccc(-n3nc(Br)c4cnc(N[C@@H]5CC[C@@](C)(C(=O)N6CCNCC6)C5)nc43)cc2CCC#N)s1`: the IC50 lay in the range of 25 to 200 nM.
In the case of `CNC(=O)[C@@]1(C)CC[C@@H](Nc2ncc3c(Br)nn(-c4cc(C#N)c5ncccc5c4)c3n2)C1` [(1S,3R)-3-((3-bromo-1-(8-cyanoquinolin-6-yl)-1H-pyrazolo[3,4-d]pyrimidin-6-yl)amino)-N,1-dimethylcyclopentane-1-carboxamide], the IC50 is 25 to 200 nM.
For the molecule `O=C([C@@H]1CC[C@@H](Nc2ncc3c(Br)nn(-c4cc(F)c5ncccc5c4)c3n2)C1)N1CCN2C(=O)COCC2C1` (stereo partly drawn) [8-((1R,3R)-3-((3-bromo-1-(8-fluoroquinolin-6-yl)-1H-pyrazolo[3,4-d]pyrimidin-6-yl)amino)cyclopentane-1-carbonyl)hexahydropyrazino [2,1-c][1,4]oxazin-4(3H)-one], the IC50 fell in the range of 25 to 200 nM.
Same read-out and setting: with `CNC(=O)[C@]1(C)CC[C@@H](Nc2ncc3c(Br)nn(-c4cc(CO)cc(C(F)(F)F)c4)c3n2)C1` [(1R,3R)-3-[[3-bromo-1-[3-(hydroxy-methyl)-5-(trifluoromethyl)phenyl]pyrazolo[3,4-d]pyrimidin-6-yl]amino]-N,1-dimethyl-cyclopentanecarboxamide] the figure was 25 to 200 nM.
`CNC(=O)[C@]1(C)CC[C@@H](Nc2ncc3c(Br)nn(-c4ccc(-c5nnc(C6CC6)o5)cc4)c3n2)C1` [(1R,3R)-3-[[3-bromo-1-[4-(5-cyclopropyl-1,3,4-oxadiazol-2-yl)phenyl]pyrazolo[3,4-d]pyrimidin-6-yl]amino]-N,1-dimethyl-cyclopentane-carboxamide]: the IC50 was in the range of 25 to 200 nM.
Regarding `O=C(O)[C@@H]1CCC[C@@H](Nc2ncc3c(Br)nn(-c4ccc5ncccc5c4)c3n2)C1` [(1R,3R)-3-((3-bromo-1-(quinolin-6-yl)-1H-pyrazolo[3,4-d]pyrimidin-6-yl)amino) cyclohexane-1-carboxylic acid], the IC50 was 500 to 1000 nM.
As to `CNC(=O)[C@]1(C)CC[C@@H](Nc2ncc3c(Br)nn(-c4cc(F)c5ncc(C(C)(C)N)cc5c4)c3n2)C1` [(1R,3R)-3-[[1-[3-(1-amino-1-methyl-ethyl)-8-fluoro-6-quinolyl]-3-bromo-pyrazolo [3,4-d]pyrimidin-6-yl]amino]-N,1-dimethyl-cyclopentanecarboxamide], the IC50 fell in the range of 25 to 200 nM.
With `Cc1nnc(-c2ccc(-n3nc(Br)c4cnc(NC5CC(S(C)(=O)=O)C5)nc43)cc2)s1` (centres unmarked) [3-bromo-N-(3-methylsulfonylcyclobutyl)-1-[4-(5-methyl-1,3,4-thiadiazol-2-yl)phenyl] pyrazolo[3,4-d]pyrimidin-6-amine], the IC50 fell in the range of 25 to 200 nM.
On the same count and under the same terms, with `CNC(=O)[C@]1(C)CC[C@@H](Nc2ncc3c(Br)nn(-c4ccc(-c5nnc(C(C)(C)N)o5)c(C#N)c4)c3n2)C1` [(1R,3R)-3-[[1-[4-[5-(1-amino-1-methyl-ethyl)-1,3,4-oxadiazol-2-yl]-3-cyano-phenyl]-3-bromo-pyrazolo[3,4-d]pyrimidin-6-yl]amino]-N,1-dimethyl-cyclopentanecarboxamide] the figure was under 25 nM; with `CNC(=O)[C@]1(C)CC[C@@H](Nc2ncc3c(Br)nn(-c4ccc5c(c4)CN(C=O)CC5)c3n2)C1` [(1R,3R)-3-[[3-bromo-1-(2-formyl-3,4-dihydro-1H-isoquinolin-7-yl)pyrazolo [3,4-d]pyrimidin-6-yl]amino]-N,1-dimethyl-cyclopentanecarboxamide], 25 to 200 nM; with `CNC(=O)[C@]1(C)CC[C@@H](Nc2ncc3c(Br)nn(-c4cc(F)cc([C@H](C)N)c4)c3n2)C1`, 25 to 200 nM.
